Laboratory results published in patent US20260294922A1, “Inhibitors of JUN N-Terminal Kinases (JNK1, JNK2, and/or JNK3) and Mitogen-Activated Protein Kinases (MAPK8, MAPK9, and/or MAPK10) and Methods of Using Same” (Baylor College of Medicine, priority 2023, published 2026).
Converted amounts (≈) assume the structure as drawn. “Also recorded” adds a separate entry of the source. Read-outs that look alike come from different tables or passages of the source.

How the values were obtained:
[1] = cited from earlier work; for clinical safety: Phase 1 volunteers / IPF
Other MAPK = assay: Eurofins KdSelect, other MAPK; type: binding; conditions: Table 2; IC50 nM; read-out: Other MAPK, based on Kd select results
Excerpt: The next step was to confirm that the compounds that bound to JNK1, JNK2 or JNK3 in a competitive manner, relative to bentamapimod, were inhibitors of the ATP-dependent kinase activity in assays. In many cases, the results have been replicated at ThermoFisher using their SelectScreen technology platform. Based on knowledge about JNK inhibitors, and the results of DEC-Tec selections, a target compound profile was developed (Table 2).
The efficacy and selectivity of BEND and TANZ were used to define a realistic preliminary target compound profile (Table 2) for the next generation of JNK1-3 inhibitors for the treatment of endometriosis.

LATS1 [2] = biological target: T1, LATS1 (Homo sapiens, UniProt O95835); assay: ThermoFisher Z'Lyte assay, LATS1; type: biochemical
T1 sequence (O95835 whole entry): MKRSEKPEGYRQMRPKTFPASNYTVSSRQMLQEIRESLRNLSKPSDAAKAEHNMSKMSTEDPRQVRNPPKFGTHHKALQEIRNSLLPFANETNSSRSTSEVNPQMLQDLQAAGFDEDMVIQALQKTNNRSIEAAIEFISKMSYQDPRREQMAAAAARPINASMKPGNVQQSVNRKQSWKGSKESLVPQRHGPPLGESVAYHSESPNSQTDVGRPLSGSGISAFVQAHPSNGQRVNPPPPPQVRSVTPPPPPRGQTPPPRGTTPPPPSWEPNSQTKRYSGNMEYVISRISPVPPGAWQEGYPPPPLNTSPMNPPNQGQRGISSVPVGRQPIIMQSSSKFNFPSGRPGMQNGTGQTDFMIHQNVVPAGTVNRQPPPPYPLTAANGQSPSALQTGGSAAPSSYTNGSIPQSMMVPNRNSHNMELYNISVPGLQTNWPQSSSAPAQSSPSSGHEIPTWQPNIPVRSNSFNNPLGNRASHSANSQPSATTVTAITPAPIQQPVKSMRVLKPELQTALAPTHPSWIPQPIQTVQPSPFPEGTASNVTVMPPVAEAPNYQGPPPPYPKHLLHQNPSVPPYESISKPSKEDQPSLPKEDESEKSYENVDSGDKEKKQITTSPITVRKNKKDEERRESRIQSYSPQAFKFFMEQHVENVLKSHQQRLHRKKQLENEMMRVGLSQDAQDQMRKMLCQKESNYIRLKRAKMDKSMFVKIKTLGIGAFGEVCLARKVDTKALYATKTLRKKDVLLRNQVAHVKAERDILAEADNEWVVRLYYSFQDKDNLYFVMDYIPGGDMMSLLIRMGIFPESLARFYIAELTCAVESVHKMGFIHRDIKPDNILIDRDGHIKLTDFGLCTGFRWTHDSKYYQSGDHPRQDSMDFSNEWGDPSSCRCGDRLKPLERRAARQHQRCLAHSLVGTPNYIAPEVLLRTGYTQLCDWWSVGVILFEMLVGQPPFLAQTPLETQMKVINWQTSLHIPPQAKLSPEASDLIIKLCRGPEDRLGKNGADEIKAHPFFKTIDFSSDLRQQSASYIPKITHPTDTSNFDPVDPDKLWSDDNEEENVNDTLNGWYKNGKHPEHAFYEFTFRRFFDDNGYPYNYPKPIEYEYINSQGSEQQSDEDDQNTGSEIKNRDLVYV
Excerpt: Inhibition of LATS1 was not confirmed in a subsequent ThermoFisher Z'Lyte assay.

LATS1 [3] = biological target: T1, LATS1; assay: KINOMEscan, LATS1; type: binding; conditions: 1 μM
[4] = test system: immortalized human endometriotic epithelial cells (iHEEC); assay: Phosphorylation of JNK and Jun in iHEEC; type: cell-based
Excerpt: FIG. 26A depicts the effects of CDD-2728 and CDD-3013 on phosphorylation of the JNK enzyme itself (i.e., representing MEK4 inhibition) and phosphorylation of pSer63 and pSer73 on the transcription factor Jun in immortalized human endometriotic epithelial cells (iHEEC). The HEEC cells are a well characterized cell line that are relevant for the evaluation of inflammatory endpoints and measures of epithelial-to-mesenchymal transitions (EMT). […] This is consistent with the potency relationships of CDD-2728 relative to bentamapimod observed in cytokine gene expression described above in iHEEC cells and primary human stromal endometriotic cells. […] SP600125 has been frequently described as a poorly-selective JNK-I but in this context provides additional confirmation of inhibition of the JNK target kinase for CDD-2728. […] This adds further support to the critical role of JNK-1 to the therapeutic effect of the JNK inhibitors of the disclosure.

JNK1 [5] = biological target: T2, JNK1 (Homo sapiens, UniProt P45983); assay: JNK1 biochemical assay (piperazine series)
T2 sequence (P45983 whole entry): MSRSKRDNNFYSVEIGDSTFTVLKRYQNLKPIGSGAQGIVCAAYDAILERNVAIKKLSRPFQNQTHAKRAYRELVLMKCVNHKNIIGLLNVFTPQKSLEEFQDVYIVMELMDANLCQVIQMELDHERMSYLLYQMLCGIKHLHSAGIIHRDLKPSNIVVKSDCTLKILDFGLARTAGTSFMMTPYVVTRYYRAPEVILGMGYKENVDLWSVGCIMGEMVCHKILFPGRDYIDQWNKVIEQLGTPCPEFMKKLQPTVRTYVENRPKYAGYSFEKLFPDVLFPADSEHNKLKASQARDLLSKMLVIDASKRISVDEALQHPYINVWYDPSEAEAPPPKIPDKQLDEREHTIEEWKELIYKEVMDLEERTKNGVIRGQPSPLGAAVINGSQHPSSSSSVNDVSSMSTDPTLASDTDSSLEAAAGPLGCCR
Excerpt: FIG. 21B depicts concentration-dependent inhibition of JNK1 with CDD-1722 and CDD-1723. Components of CDD-1722 and CD-1723 represent alternative building blocks which may be incorporated during optimization of pharmaceutical properties of JNK-I.

JNK2 [6] = biological target: T3, JNK2 (Homo sapiens, UniProt P45984); assay: Promega NanoBRET intracellular target engagement (tracer K10 displacement), JNK2; type: cell-based
T3 sequence (P45984 whole entry): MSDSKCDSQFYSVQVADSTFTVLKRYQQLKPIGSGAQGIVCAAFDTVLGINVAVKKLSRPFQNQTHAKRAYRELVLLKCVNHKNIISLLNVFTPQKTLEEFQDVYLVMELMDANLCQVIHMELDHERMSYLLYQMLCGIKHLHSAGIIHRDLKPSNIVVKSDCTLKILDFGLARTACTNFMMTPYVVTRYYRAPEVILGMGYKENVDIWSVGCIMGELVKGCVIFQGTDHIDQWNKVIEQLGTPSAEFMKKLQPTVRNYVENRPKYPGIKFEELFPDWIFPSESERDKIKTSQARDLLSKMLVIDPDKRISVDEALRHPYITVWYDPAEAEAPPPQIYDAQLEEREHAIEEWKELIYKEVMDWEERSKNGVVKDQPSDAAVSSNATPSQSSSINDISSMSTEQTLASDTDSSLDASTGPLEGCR

JNK1 [7] = biological target: T2, JNK1; assay: Promega NanoBRET intracellular target engagement (tracer K10 displacement), JNK1; type: cell-based
JNK3 [8] = biological target: T4, JNK3 (Homo sapiens, UniProt P53779); assay: Promega NanoBRET intracellular target engagement (tracer K10 displacement), JNK3; type: cell-based
T4 sequence (P53779 whole entry): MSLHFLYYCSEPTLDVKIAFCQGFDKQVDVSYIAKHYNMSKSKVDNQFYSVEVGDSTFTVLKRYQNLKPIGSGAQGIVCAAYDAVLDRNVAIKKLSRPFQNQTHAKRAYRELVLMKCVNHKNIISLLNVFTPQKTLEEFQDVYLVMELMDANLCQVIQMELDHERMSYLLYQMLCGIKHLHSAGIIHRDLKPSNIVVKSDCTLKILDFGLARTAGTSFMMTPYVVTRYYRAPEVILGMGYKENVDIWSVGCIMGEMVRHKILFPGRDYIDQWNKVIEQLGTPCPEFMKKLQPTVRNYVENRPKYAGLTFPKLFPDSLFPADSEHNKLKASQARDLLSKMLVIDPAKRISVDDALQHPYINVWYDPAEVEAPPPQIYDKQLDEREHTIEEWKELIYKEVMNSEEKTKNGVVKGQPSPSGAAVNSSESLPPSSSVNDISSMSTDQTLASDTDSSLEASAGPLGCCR

MEK4 = biological target: T5, MEK4 (Homo sapiens, UniProt P45985); assay: ThermoFisher SelectScreen, MEK4; type: binding
T5 construct: purchased ThermoFisher (SelectScreen)
T5 sequence (P45985 1-399): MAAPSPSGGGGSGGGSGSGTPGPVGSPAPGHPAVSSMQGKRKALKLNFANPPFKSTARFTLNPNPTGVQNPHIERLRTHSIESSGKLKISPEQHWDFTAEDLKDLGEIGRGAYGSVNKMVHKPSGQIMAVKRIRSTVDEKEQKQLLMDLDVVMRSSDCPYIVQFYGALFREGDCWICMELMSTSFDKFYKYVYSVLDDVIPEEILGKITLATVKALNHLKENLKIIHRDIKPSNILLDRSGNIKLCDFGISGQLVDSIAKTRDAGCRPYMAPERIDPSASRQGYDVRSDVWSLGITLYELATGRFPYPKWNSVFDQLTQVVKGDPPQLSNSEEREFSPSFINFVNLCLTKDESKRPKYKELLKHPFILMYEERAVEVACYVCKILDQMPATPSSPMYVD

JNK1 [9] = biological target: T2, JNK1; assay: JNK1 kinase (intrinsic ATPase, Kinase-Glo) assay; type: biochemical
How it was run: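 Full-length construct not stated; kinases hydrolyse ATP without peptide substrate, reaction run 30 or 60 min at 30° C, remaining ATP read by Kinase-Glo luminescence with no-kinase controls. Apparent Ki from normalized fractional activities fitted to modified Morrison tight-binding equation; orthogonal LanthaScreen binding assay gave IC50.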

[10] = In vitro metabolism in human liver microsomes; conditions: human, microsomes
Method: (§1) The target product profile seeks to deliver JNK inhibitor as a once daily oral administration. To prioritize compounds for further development, in vitro metabolism of several CDD JNK inhibitors were determined to approximate the plasma half-life and the rate of metabolism of the compounds in vivo.

hVPS34 = biological target: T6, hVPS34 (Homo sapiens, UniProt Q8NEB9); assay: ThermoFisher SelectScreen, hVPS34; type: binding; conditions: Table 4
T6 construct: purchased ThermoFisher (SelectScreen, outsourced service)
T6 sequence (Q8NEB9 whole entry): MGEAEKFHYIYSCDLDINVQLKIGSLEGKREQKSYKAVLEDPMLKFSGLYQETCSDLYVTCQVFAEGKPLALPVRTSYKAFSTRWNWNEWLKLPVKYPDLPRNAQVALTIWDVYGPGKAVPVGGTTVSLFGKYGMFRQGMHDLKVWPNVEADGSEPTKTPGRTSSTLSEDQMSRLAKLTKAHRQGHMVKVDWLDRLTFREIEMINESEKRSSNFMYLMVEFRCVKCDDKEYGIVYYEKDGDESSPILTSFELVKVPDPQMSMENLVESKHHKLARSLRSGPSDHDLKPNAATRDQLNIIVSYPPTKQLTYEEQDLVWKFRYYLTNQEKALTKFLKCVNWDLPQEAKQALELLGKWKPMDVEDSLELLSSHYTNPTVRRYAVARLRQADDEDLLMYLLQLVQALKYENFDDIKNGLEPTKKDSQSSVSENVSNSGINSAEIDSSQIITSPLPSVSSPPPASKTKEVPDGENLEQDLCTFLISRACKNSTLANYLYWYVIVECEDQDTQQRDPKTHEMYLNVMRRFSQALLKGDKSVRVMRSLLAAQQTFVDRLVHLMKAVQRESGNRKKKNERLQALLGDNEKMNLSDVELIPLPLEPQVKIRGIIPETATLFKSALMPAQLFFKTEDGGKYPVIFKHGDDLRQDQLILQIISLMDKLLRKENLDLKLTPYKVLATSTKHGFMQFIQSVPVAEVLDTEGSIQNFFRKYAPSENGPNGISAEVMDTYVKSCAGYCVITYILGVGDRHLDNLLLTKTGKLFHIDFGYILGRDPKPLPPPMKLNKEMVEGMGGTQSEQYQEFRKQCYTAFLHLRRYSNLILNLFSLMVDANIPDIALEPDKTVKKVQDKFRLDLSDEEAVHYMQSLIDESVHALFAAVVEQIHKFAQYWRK
Method: (§2) To mitigate violation of the linear initial velocity principle, which is a problem in end-point assays when doing dose-responses, the enzyme concentration was carefully optimized, in a total assay volume of 25 μL. The assay was performed using 10 μM ATP, 0.02% Tween-20, kinase buffer from Cell Signaling (#9802) in white 384-well plates. The kinase reaction was done for 30 or 60 min at 30° C., and detection of leftover ATP was measured according to Promega's protocol. […] Fractional activities were obtained from normalized data. Non-linear regression (GraphPad Prism7) and a modified Morrison equation for tight binding was used to determine apparent Ki values for inhibitors, assuming no particular mode of inhibition. An orthogonal binding assay (LanthaScreen) was outsourced to ThermoFisher Scientific's SelectScreen Services to determine IC50 values.
(§3) One of the earliest compounds to be synthesized with favorable enzymatic activity towards JNK1 and JNK3 was CDD-2346. A KINOMEscan was performed for CDD-2346 to establish whether the selectivity of this chemical scaffold was suitable or required optimization. […] To confirm that the activity against each kinase was a true result and not a false positive, CDD-2346 was evaluated in kinase assays using ThermoFisher SelectScreen platform. The results from these assays are provided herein (Table 4). The important innovative steps described are the optimization of selectivity a) for JNK isoforms; b) for kinases considered “in-pathway”; and c) to avoid kinases considered “out-of-pathway”.

CSNK1E = biological target: T7, CSNK1E (Homo sapiens, UniProt P49674); assay: ThermoFisher SelectScreen, CSNK1E; type: binding
T7 construct: purchased ThermoFisher (SelectScreen)

MEK5 = biological target: T8, MEK5 (Homo sapiens, UniProt Q13163); assay: ThermoFisher SelectScreen, MEK5; type: binding; conditions: Table 4
T8 construct: purchased ThermoFisher (SelectScreen, outsourced service)
T8 sequence (Q13163 1-448): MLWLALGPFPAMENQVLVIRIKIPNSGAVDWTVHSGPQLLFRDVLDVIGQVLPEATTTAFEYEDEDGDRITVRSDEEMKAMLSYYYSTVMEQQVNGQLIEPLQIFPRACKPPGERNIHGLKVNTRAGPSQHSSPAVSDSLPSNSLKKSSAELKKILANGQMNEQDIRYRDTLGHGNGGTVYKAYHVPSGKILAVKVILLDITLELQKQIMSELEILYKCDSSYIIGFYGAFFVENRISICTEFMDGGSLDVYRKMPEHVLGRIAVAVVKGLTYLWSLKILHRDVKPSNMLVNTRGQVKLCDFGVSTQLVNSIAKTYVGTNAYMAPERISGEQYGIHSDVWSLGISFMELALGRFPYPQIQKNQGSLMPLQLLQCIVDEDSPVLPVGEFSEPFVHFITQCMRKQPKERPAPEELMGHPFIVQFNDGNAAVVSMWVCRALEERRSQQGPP
Method: as §2, §3

JNK3 [11] = biological target: T4, JNK3; assay: JNK3 kinase (intrinsic ATPase, Kinase-Glo) assay; type: biochemical
[12] = In vitro metabolism in mouse liver microsomes; conditions: mouse, microsomes
Method: as §1

JNK3 [13] = biological target: T4, JNK3; assay: ThermoFisher SelectScreen, JNK3; type: binding
JNK2 [14] = biological target: T3, JNK2; assay: JNK2 kinase (intrinsic ATPase, Kinase-Glo) assay; type: biochemical
CSNK1G1 = biological target: T9, CSNK1G1 (Homo sapiens, UniProt Q9HCP0); assay: ThermoFisher SelectScreen, CSNK1G1; type: binding; conditions: Table 4
T9 construct: purchased ThermoFisher (SelectScreen)
T9 sequence (Q9HCP0 whole entry): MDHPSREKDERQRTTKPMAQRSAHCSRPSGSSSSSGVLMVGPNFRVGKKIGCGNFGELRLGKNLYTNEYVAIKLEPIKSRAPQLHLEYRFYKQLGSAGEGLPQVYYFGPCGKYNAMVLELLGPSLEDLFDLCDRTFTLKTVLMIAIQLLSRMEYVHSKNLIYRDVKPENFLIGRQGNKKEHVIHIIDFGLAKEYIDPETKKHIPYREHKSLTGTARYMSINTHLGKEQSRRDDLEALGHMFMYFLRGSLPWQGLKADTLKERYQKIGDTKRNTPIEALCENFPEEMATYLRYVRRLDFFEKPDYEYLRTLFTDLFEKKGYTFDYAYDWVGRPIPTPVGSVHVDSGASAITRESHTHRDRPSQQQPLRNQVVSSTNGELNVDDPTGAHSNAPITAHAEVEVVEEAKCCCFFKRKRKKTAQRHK
Method: as §2, §3
No activity of CDD-2728 was detected for Atypical, Mutant, or Lipid kinases. To confirm CDD-2728 inhibition results in the KINOMEscan analysis, individual binding assays were performed on the kinases to which CDD-2728 bound using ThermoFisher SelectScreen.

CSNK1D = biological target: T10, CSNK1D (Homo sapiens, UniProt P48730); assay: ThermoFisher SelectScreen, CSNK1D; type: binding
T10 construct: purchased ThermoFisher (SelectScreen)
T10 sequence (P48730 whole entry): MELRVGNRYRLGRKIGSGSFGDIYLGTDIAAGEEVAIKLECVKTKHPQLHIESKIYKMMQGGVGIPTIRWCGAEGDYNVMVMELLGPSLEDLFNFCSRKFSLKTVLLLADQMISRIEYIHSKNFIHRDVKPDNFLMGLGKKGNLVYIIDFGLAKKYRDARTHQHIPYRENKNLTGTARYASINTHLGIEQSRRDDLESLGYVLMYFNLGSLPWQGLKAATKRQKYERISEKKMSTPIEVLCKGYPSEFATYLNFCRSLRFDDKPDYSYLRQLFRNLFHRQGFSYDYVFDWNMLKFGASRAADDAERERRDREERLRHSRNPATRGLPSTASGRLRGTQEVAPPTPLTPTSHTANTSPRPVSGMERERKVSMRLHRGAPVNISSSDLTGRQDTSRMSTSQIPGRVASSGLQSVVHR

CLK2 = biological target: T11, CLK2 (Homo sapiens, UniProt P49760); assay: ThermoFisher SelectScreen, CLK2; type: binding
T11 construct: purchased ThermoFisher (SelectScreen)
T11 sequence (P49760 whole entry): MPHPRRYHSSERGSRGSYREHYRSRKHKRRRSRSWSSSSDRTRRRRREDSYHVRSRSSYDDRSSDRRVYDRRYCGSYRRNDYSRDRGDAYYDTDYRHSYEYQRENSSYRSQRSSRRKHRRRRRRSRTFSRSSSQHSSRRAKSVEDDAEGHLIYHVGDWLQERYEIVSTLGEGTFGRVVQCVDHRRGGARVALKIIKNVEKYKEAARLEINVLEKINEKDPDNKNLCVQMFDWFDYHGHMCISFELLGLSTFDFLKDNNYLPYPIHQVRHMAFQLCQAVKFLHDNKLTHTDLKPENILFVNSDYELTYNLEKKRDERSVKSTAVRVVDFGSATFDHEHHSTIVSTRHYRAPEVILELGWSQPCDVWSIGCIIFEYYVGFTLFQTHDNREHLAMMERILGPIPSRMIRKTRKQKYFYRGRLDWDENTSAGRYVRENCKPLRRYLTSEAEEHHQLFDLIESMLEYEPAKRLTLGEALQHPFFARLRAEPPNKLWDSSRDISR

HepG2 cells = assay: HepG2 cell viability (ATP consumption); conditions: CDD-2575 25 μM; CDD-2728, CDD-2624 up to 75
Method: This assay reflects cell viability. […] To determine if the responses observed in endometriotic epithelial cells and endometriotic stromal cell cultures were cytotoxic, cell viability was performed in HepG2 cells.

SMILES	IC50 (JNK2 [6])	IC50 (JNK1 [7])	IC50 (JNK3 [8])	Kd (MEK4)	Kd (JNK1 [9])	half-life [10]	Kd (hVPS34)	solubility (Solubility)	Kd (JNK3 [11]; Table 3a, read-out: Kd JNK3)	half-life [12]	Kd (JNK3 [13])	Kd (JNK2 [14]; Table 3a, read-out: Kd JNK2)	also measured
O[C@H]1CC[C@H](Nc2ncc3nc(Nc4c(F)cc(F)cc4F)n([C@H]4CCOC4)c3n2)CC1 [CDD-985, tanzisertib]													effect in preclinical IPF models and human IPF patients ([1]; IPF): reduced inflammation, EMT, and fibrosis; clinical safety ([1]; listed as TANZ): adverse liver effect; clinical safety ([1]; listed as Tanzisertib): deemed safe; Kd (Other MAPK): > 1000 nM; LATS1 inhibition in Z'Lyte assay (LATS1 [2]): not confirmed; LATS1 inhibition in KINOMEscan (LATS1 [3]): weakly inhibited; phosphorylation of Jun at pSer63 and pSer73 [4]: lack of efficacy
CNC(=O)CN1[C@H](CCNC(=O)OCc2ccccc2)CN(Cc2cccc3ccnn23)C[C@H]1CC(=O)NCCCN(C)c1ccc(F)cc1 [CDD-1723, benzyl (2-((2R,6R)-6-(2-((3-((4-fluorophenyl)(methyl)amino)propyl)amino)-2-oxoethyl)-1-(2-(methylamino)-2-oxoethyl)-4-(pyrazolo[1,5-a]pyridin-7-ylmethyl)piperazin-2-yl)ethyl)carbamate]	32000 nM	24000 nM	38000 nM										JNK1 inhibition (JNK1 [5]; in words): good inhibition of JNK1
CNC(=O)CN1[C@@H](CCNC(=O)OCc2ccccc2)CN(Cc2cccc3ccnn23)C[C@@H]1CC(=O)NCCCN(C)c1ccc(F)cc1 [CDD-2009, benzyl (2-((2S,6S)-6-(2-((3-((4-fluorophenyl)(methyl)amino)propyl)amino)-2-oxoethyl)-1-(2-(methylamino)-2-oxoethyl)-4-(pyrazolo[1,5-a]pyridin-7-ylmethyl)piperazin-2-yl)ethyl)carbamate]													JNK1 activity relative to CDD-1723 (fold less active) (JNK1 [5]; enantiomer comparison): 20 fold
CNCc1ccc(NC(=O)c2ccn3ncc(-c4cnc(N)nc4)c3c2)cc1 [CDD-2387, 3-(2-aminopyrimidin-5-yl)-N-(4-((methylamino)methyl)phenyl)pyrazolo[1,5-a]pyridine-5-carboxamide]				262 nM	2.96 ± 0.32 nM	2.04 h	130 nM	254 µM (≈ 94.8 µg/mL)	8.44 ± 0.66 nM	2.01 h	8.4 nM	28.8 ± 1.8 nM	Kd (CSNK1E): 2660 nM; Kd (MEK5): 40700 nM
COc1ccc(NC(=O)c2cc3c(-c4cnc5[nH]ccc5c4)cccc3s2)cc1C(=O)N1CCCCC1 [CDD-2491, N-(4-methoxy-3-(piperidine-1-carbonyl)phenyl)-4-(1H-pyrrolo[2,3-b]pyridin-5-yl)benzo[b]thiophene-2-carboxamide]				60.2 nM	0.28 nM	0.213 h	38000 nM	2.5 µM (≈ 1.28 µg/mL)		0.26 h	1.41 nM		Kd (CSNK1G1): 95000 nM; Kd (CSNK1D): 8350 nM; Kd (JNK3 [11]): 1.41 ± 0.12 nM; Kd (CLK2): 1170 nM; Kd (JNK2 [14]): 0.43 ± 0.09 nM
CNCc1ccc(NC(=O)c2cc3c(-c4cnc5[nH]ccc5c4)cccc3s2)cc1 [CDD-2575, N-(4-((methylamino)methyl)phenyl)-4-(1H-pyrrolo[2,3-b]pyridin-5-yl)benzo[b]thiophene-2-carboxamide]	2300 nM	2200 nM	4800 nM		1.15 ± 0.28 nM	6.81 h		40.6 µM (≈ 16.7 µg/mL)	2.76 ± 0.51 nM	1.95 h		1.76 ± 0.15 nM	effect on HepG2 cell viability / ATP consumption (HepG2 cells): non-specific decreases in cell viability were pronounced for CDD-2575 at 25 μM; also recorded: reduced ATP consumption
